Reference: ChEMBL document CHEMBL3588819, “Antiviral Limonoids Including Khayanolides from the Trang Mangrove Plant Xylocarpus moluccensis” (J Nat Prod, 2015)
pIC50: −log10 of the molar value.

Test system: Influenza A virus
Assay: Antiviral activity against influenza A virus (A/Puerto Rico/8/34(H1N1)) infected in MDCK cells assessed as inhibition of virus-induced cytopathic effect incubated for 48 hrs by crystal violet staining based assay
Assay type: functional, organism-based
Conditions: A/Puerto Rico/8/1934(H1N1)

Structure (SMILES) | pIC50
COC(=O)C[C@H]1[C@@]2(C)C[C@]3(O)[C@H](C(=O)[C@H]2OC(C)=O)C2=C4CC(=O)O[C@@H](c5ccoc5)[C@]4(C)CC[C@@H]2[C@]13C | 3.95
COC(=O)C[C@H]1[C@@]2(C)C[C@]3(O)[C@H](C(=O)[C@H]2OC(C)=O)C2=C(CC[C@]4(C)C2=CC(=O)O[C@H]4c2ccoc2)[C@]13C | 3.92
NC(=O)c1ncn([C@@H]2O[C@H](CO)[C@@H](O)[C@H]2O)n1 [RIBAVIRIN] | 3.73
COC(=O)C[C@@H]1[C@@]2(C)[C@H]3CC[C@]4(C)C(=C3[C@@]3(O)[C@@H](OC(C)=O)C(=O)[C@]1(C)C[C@@]23O)CC(=O)O[C@H]4c1ccoc1 | 4.11
